What was measured:
[1] = molecular target: T1, human IDO (IDO1-expressing HEK293 cells) (Homo sapiens, UniProt P14902); experiment: Cell based kynurenine assay, IDO1-expressing HEK293 cell clones; conditions: IDO1-expressing HEK293 cells, 24 hours incubation; geometric mean; read-out: HEK293 IDO1 Kynurenine GMean IC50 (μM) (Cellular Assay)
T1 construct: expressed in transfected cells
In short: (§1)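 Supernatant kynurenine was measured after 24 h exposure of stably transfected HEK293 cells (human IDO1 or TDO, 2.5×10^4/well) to serially diluted compound. Percent inhibition used 0.2% DMSO cell wells as high and media-only wells as low controls; IC50 fitted by nonlinear regression.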

[2] = molecular target: T2, Human Indoleamine 2,3-dioxygenase (IDO) (Homo sapiens, UniProt P14902); experiment: Human IDO enzymatic assay (kynurenine level); format: biochemical; conditions: 6 nM IDO, 10 μM L-Trp; geometric mean; read-out: IDO1 GMean: IC50 (μM) (Biochemical Assay)
T2 construct: His tag (N); made in house; host or cells: E. coli
T2 sequence (P14902 whole entry): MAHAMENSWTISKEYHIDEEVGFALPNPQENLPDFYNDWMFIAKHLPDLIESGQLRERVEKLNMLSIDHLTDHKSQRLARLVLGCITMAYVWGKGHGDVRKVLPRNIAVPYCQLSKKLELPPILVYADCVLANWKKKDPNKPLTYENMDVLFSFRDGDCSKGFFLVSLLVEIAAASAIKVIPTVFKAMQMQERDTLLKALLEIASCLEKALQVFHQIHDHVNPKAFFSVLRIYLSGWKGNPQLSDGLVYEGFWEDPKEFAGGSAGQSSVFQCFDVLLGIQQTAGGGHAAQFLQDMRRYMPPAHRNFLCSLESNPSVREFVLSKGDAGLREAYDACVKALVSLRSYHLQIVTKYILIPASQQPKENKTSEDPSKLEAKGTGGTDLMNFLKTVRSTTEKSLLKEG
In short: (§2)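 Reactions were stopped with TCA, converting N-formylkynurenine to kynurenine for quantitation, with IC50 by nonlinear regression. IDO: 6 nM enzyme, 10 μM L-Trp, 20 min RT. TDO: 1 nM enzyme, 350 μM L-Trp, 70 min RT, both in pH 6.5 buffer.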

[3] = molecular target: T3, Human Tryptophan 2,3-dioxygenase (TDO) (Homo sapiens, UniProt P48775); experiment: Human TDO enzymatic assay (kynurenine level); format: biochemical; conditions: 1 nM TDO, 350 μM L-Trp; geometric mean; read-out: TDO GMean: IC50 (μM) (Biochemical Assay)
T3 construct: His tag (N); made in house; host or cells: E. coli
T3 sequence (P48775 whole entry): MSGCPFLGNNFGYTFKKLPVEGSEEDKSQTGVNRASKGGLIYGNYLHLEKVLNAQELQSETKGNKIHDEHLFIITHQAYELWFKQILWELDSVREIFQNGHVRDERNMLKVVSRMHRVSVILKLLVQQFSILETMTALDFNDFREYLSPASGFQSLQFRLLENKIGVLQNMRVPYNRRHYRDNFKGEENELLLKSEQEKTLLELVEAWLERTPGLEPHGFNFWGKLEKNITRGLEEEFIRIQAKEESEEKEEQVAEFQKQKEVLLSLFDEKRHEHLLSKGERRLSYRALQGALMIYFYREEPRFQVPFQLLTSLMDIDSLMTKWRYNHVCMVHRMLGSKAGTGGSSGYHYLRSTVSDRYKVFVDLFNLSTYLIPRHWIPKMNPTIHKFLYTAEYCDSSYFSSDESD
In short: as §2

[4] = molecular target: T4, human TDO (TDO-expressing HEK293 cells) (Homo sapiens, UniProt P48775); experiment: Cell based kynurenine assay, TDO-expressing HEK293 cell clones; conditions: TDO-expressing HEK293 cells, 24 hours incubation; geometric mean; read-out: HEK293 TDO Kynurenine GMean IC50 (μM) (Cellular Assay)
T4 construct: expressed in transfected cells
T4 sequence (P48775 whole entry): as above
In short: as §1

T1 sequence (P14902 whole entry): as the sequence (P14902 whole entry) above

Compound | IC50 [1] | IC50 [2] | IC50 [3] | IC50 [4]
OC(c1cc(Cl)cc2cn[nH]c12)C(F)(F)C1(O)CCC1 (stereo not drawn) [Compound P-0289, 1-(2-(5-chloro-1H-indazol-7-yl)-1,1-difluoro-2-hydroxyethyl)cyclobutan-1-ol] | 0.0001 to 10 µM | 0.0001 to 10 µM | 0.0001 to 10 µM | 0.0001 to 10 µM
OC(c1c(F)c(Cl)cc2cn[nH]c12)C(F)(F)C1(O)CCC1 (stereo not drawn) [Compound P-0290, 1-(2-(5-chloro-6-fluoro-1H-indazol-7-yl)-1,1-difluoro-2-hydroxyethyl)cyclobutan-1-ol] | 0.0001 to 10 µM | 0.0001 to 10 µM | 0.0001 to 10 µM | 0.0001 to 10 µM
CC(C)S(=O)(=O)N1CC2CCC(C1)C2CC(O)c1cc(Cl)cc2cn[nH]c12 (stereo not drawn) [Compound P-0291, 1-(5-chloro-1H-indazol-7-yl)-2-(3-(isopropylsulfonyl)-3-azabicyclo[3.2.1]octan-8-yl)ethan-1-ol] | 0.0001 to 10 µM | 0.0001 to 10 µM | 0.0001 to 10 µM | 0.0001 to 10 µM
CC1(C)CN(c2c3c(cc4cn[nH]c24)CC3)CCN1S(C)(=O)=O [Compound P-0292, 7-(3,3-dimethyl-4-(methylsulfonyl)piperazin-1-yl)-5,6-dihydro-1H-cyclobuta[f]indazole] | 0.0001 to 10 µM | 0.0001 to 10 µM | 0.0001 to 10 µM | 0.0001 to 10 µM
OC(c1c2c(cc3cn[nH]c13)CC2)C1CC2CCC1C2 (stereo not drawn) [Compound P-0293, bicyclo[2.2.1]heptan-2-yl(5,6-dihydro-1H-cyclobuta[f]indazol-7-yl)methanol] | 0.0001 to 10 µM | 0.0001 to 10 µM | 0.0001 to 10 µM | 0.0001 to 10 µM
CC(=O)N1CCC(C(F)(F)C(O)c2cc(Cl)cc3cn[nH]c23)CC1 (stereo not drawn) [Compound P-0295, 1-(4-(2-(5-chloro-1H-indazol-7-yl)-1,1-difluoro-2-hydroxyethyl)piperidin-1-yl)ethan-1-one] | 0.0001 to 10 µM | 0.0001 to 10 µM | 0.0001 to 10 µM | 0.0001 to 10 µM
CS(=O)(=O)N1CCC(C(F)(F)C(O)c2c3c(cc4cn[nH]c24)CC3)CC1 (stereo not drawn) [Compound P-0296, 1-(5,6-dihydro-1H-cyclobuta[f]indazol-7-yl)-2,2-difluoro-2-(1-(methylsulfonyl)piperidin-4-yl)ethan-1-ol] | 0.0001 to 10 µM | 0.0001 to 10 µM | 0.0001 to 10 µM | > 10 µM
CC(C)(C1CCS(=O)(=O)CC1)C(O)c1cc(Cl)cc2cn[nH]c12 (stereo not drawn) [Compound P-0297, 4-(1-(5-chloro-1H-indazol-7-yl)-1-hydroxy-2-methylpropan-2-yl)tetrahydro-2H-thiopyran 1,1-dioxide] | 0.0001 to 10 µM | 0.0001 to 10 µM | 0.0001 to 10 µM | 0.0001 to 10 µM
CC(C)(C1CCS(=O)(=O)CC1)C(O)c1c(F)c(Cl)cc2cn[nH]c12 (stereo not drawn) [Compound P-0298, 4-(1-(5-chloro-6-fluoro-1H-indazol-7-yl)-1-hydroxy-2-methylpropan-2-yl)tetrahydro-2H-thiopyran 1,1-dioxide] | 0.0001 to 10 µM | 0.0001 to 10 µM | 0.0001 to 10 µM | 0.0001 to 10 µM
OC(c1c(F)c(Cl)cc2cn[nH]c12)C12CCC(F)(CC1)CC2 (stereo not drawn) [Compound P-0299, (5-chloro-6-fluoro-1H-indazol-7-yl)(4-fluorobicyclo[2.2.2]octan-1-yl)methanol] | 0.0001 to 10 µM | 0.0001 to 10 µM | 0.0001 to 10 µM | 0.0001 to 10 µM
CC(=O)N1C2CCC1CC(C(C)(C)C(O)c1c(F)c(Cl)cc3cn[nH]c13)C2 (stereo not drawn) [Compound P-0300] | 0.0001 to 10 µM | 0.0001 to 10 µM | 0.0001 to 10 µM | 0.0001 to 10 µM
OC(c1c(F)c(Cl)cc2cn[nH]c12)C12CCC(C(F)(F)F)(CC1)CC2 (stereo not drawn) [Compound P-0301, (5-chloro-6-fluoro-1H-indazol-7-yl)(4-(trifluoromethyl)bicyclo[2.2.2]octan-1-yl)methanol] | 0.0001 to 10 µM | 0.0001 to 10 µM | 0.0001 to 10 µM | 0.0001 to 10 µM

Results, then the compound that gave them:

IC50 [1] | IC50 [2] | IC50 [3] | IC50 [4] | Compound
0.0001 to 10 µM | 0.0001 to 10 µM | 0.0001 to 10 µM | 0.0001 to 10 µM | CC(=O)N1C[C@H]2CC[C@@H](C1)[C@H]2C(F)(F)C(O)c1cc(Cl)cc2cn[nH]c12 (stereo partly drawn) [Compound P-0302, 1-((1R,5S,8s)-8-(2-(5-chloro-1H-indazol-7-yl)-1,1-difluoro-2-hydroxyethyl)-3-azabicyclo[3.2.1]octan-3-yl)ethan-1-one]
0.0001 to 10 µM | 0.0001 to 10 µM | 0.0001 to 10 µM | 0.0001 to 10 µM | CC(=O)N1C[C@H]2CC[C@@H](C1)[C@@H]2C(F)(F)C(O)c1cc(Cl)cc2cn[nH]c12 (stereo partly drawn) [Compound P-0303, 1-((1R,5S,8s)-8-(2-(5-chloro-1H-indazol-7-yl)-1,1-difluoro-2-hydroxyethyl)-3-azabicyclo[3.2.1]octan-3-yl)ethan-1-one]
0.0001 to 10 µM | 0.0001 to 10 µM | 0.0001 to 10 µM | 0.0001 to 10 µM | CCS(=O)(=O)N1CCC(C(C)(C)C(O)c2cc(Cl)cc3cn[nH]c23)CC1 (stereo not drawn) [Compound P-0304, 1-(5-chloro-1H-indazol-7-yl)-2-(1-(ethylsulfonyl)piperidin-4-yl)-2-methylpropan-1-ol]
0.0001 to 10 µM | 0.0001 to 10 µM | 0.0001 to 10 µM | 0.0001 to 10 µM | CCCS(=O)(=O)N1CCC(C(C)(C)C(O)c2cc(Cl)cc3cn[nH]c23)CC1 (stereo not drawn) [Compound P-0305, 1-(5-chloro-1H-indazol-7-yl)-2-methyl-2-(1-(propylsulfonyl)piperidin-4-yl)propan-1-ol]
0.0001 to 10 µM | 0.0001 to 10 µM | 0.0001 to 10 µM | 0.0001 to 10 µM | CC(C)(C1CCN(S(=O)(=O)C2CC2)CC1)C(O)c1cc(Cl)cc2cn[nH]c12 (stereo not drawn) [Compound P-0306]
0.0001 to 10 µM | 0.0001 to 10 µM | 0.0001 to 10 µM | 0.0001 to 10 µM | CC(C)S(=O)(=O)N1CCC(C(C)(C)C(O)c2cc(Cl)cc3cn[nH]c23)CC1 (stereo not drawn) [Compound P-0307, 1-(5-chloro-1H-indazol-7-yl)-2-(1-(isopropylsulfonyl)piperidin-4-yl)-2-methylpropan-1-ol]
0.0001 to 10 µM | 0.0001 to 10 µM | 0.0001 to 10 µM | 0.0001 to 10 µM | CN(C)S(=O)(=O)N1CCC(C(C)(C)C(O)c2cc(Cl)cc3cn[nH]c23)CC1 (stereo not drawn) [Compound P-0308, 4-(1-(5-chloro-1H-indazol-7-yl)-1-hydroxy-2-methylpropan-2-yl)-N,N-dimethylpiperidine-1-sulfonamide]
0.0001 to 10 µM | 0.0001 to 10 µM | 0.0001 to 10 µM | 0.0001 to 10 µM | CC(C)(C1CCN(S(=O)(=O)c2ccccc2)CC1)C(O)c1cc(Cl)cc2cn[nH]c12 (stereo not drawn) [Compound P-0309, 1-(5-chloro-1H-indazol-7-yl)-2-methyl-2-(1-(phenylsulfonyl)piperidin-4-yl)propan-1-ol]
0.0001 to 10 µM | 0.0001 to 10 µM | 0.0001 to 10 µM | 0.0001 to 10 µM | CC(=O)N1CCC(C(C)(C)C(O)c2cc(Cl)cc3cn[nH]c23)CC1 (stereo not drawn) [Compound P-0310, 1-(4-(1-(5-chloro-1H-indazol-7-yl)-1-hydroxy-2-methylpropan-2-yl)piperidin-1-yl)ethan-1-one]
0.0001 to 10 µM | 0.0001 to 10 µM | 0.0001 to 10 µM | 0.0001 to 10 µM | CCC(=O)N1CCC(C(C)(C)C(O)c2cc(Cl)cc3cn[nH]c23)CC1 (stereo not drawn) [Compound P-0311, 1-(4-(1-(5-chloro-1H-indazol-7-yl)-1-hydroxy-2-methylpropan-2-yl)piperidin-1-yl)propan-1-one]
0.0001 to 10 µM | 0.0001 to 10 µM | 0.0001 to 10 µM | 0.0001 to 10 µM | CC(C)(C1CCN(C(=O)C2CC2)CC1)C(O)c1cc(Cl)cc2cn[nH]c12 (stereo not drawn) [Compound P-0312, (4-(1-(5-chloro-1H-indazol-7-yl)-1-hydroxy-2-methylpropan-2-yl)piperidin-1-yl)(cyclopropyl) methanone]
0.0001 to 10 µM | 0.0001 to 10 µM | 0.0001 to 10 µM | 0.0001 to 10 µM | CNC(=O)N1CCC(C(C)(C)C(O)c2cc(Cl)cc3cn[nH]c23)CC1 (stereo not drawn) [Compound P-0314, 4-(1-(5-chloro-1H-indazol-7-yl)-1-hydroxy-2-methylpropan-2-yl)-N-methylpiperidine-1-carboxamide]
0.0001 to 10 µM | 0.0001 to 10 µM | 0.0001 to 10 µM | 0.0001 to 10 µM | CC(C)NC(=O)N1CCC(C(C)(C)C(O)c2cc(Cl)cc3cn[nH]c23)CC1 (stereo not drawn) [Compound P-0315, 4-(1-(5-chloro-1H-indazol-7-yl)-1-hydroxy-2-methylpropan-2-yl)-N-isopropylpiperidine-1-carboxamide]
0.0001 to 10 µM | 0.0001 to 10 µM | 0.0001 to 10 µM | 0.0001 to 10 µM | CC(C)(C1CCN(C(=O)NC2CCCC2)CC1)C(O)c1cc(Cl)cc2cn[nH]c12 (stereo not drawn) [Compound P-0316, 4-(1-(5-chloro-1H-indazol-7-yl)-1-hydroxy-2-methylpropan-2-yl)-N-cyclopentylpiperidine-1-carboxamide]
0.0001 to 10 µM | 0.0001 to 10 µM | 0.0001 to 10 µM | 0.0001 to 10 µM | CC(C)(C1CCN(C(=O)Nc2ccccc2)CC1)C(O)c1cc(Cl)cc2cn[nH]c12 (stereo not drawn) [Compound P-0317, 4-(1-(5-chloro-1H-indazol-7-yl)-1-hydroxy-2-methylpropan-2-yl)-N-phenylpiperidine-1-carboxamide]

Reference: patent US10508085B2, “Compounds and methods for IDO and TDO modulation, and indications therefor” (Plexxikon Inc., priority 2016, dated 2019)
